Source: patent publication US7531555B2, “Compositions and methods for selective inhibition of nicotine acetylcholine receptors” (University of Florida Research Foundation, Inc., priority 2003, dated 2009)

Experiments:
mice [1] = assay: Locomotor activity, nicotine-induced hypomotility; type: in vivo; details: Saline/Nicotine (1.5 mg/kg), s.c.
Procedure: Animals. Male ICR mice (20-25 g) obtained from Harlan Laboratories (Indianapolis, Ind.) were used throughout the study. Animals were housed in groups of six and had free access to food and water. Adult, male Long-Evans rats (350-460 g), obtained from Harlan (Dublin, Va.), were individually housed in a temperature-controlled (20-22° C.) environment with a 12-hour light-dark cycle (lights on at 7 a.m.). Rats were maintained within the indicated weight range by restricted post-session feeding and had ad libitum water in their home cages. Rats were drug-naive at the beginning of the study. Animals were housed in an AALAC approved facility and the study was approved by the Institutional Animal Care and Use Committee of Virginia Commonwealth University.
Locomotor activity. Mice were placed into individual Omnitech photocell activity cages (28×16.5 cm) immediately after s.c. administration of either 0.9% saline or nicotine (6.2 μmol/kg or 1 mg/kg) and were allowed to acclimate for 10 minutes. Interruptions of the photocell beams (two banks of eight cells each) were then recorded for the next 10 minutes. Data were expressed as percentage of depression where % depression=[1−(counts from nicotine-treated animals/counts from vehicle-treated animals)]×100. Mice were pretreated s.c. with either saline or TMPH 10 minutes before nicotine.
Eight to twelve mice were tested in each treatment group and each animal was tested only once.
Statistical analysis. Statistical analysis of all analgesic and in vivo studies was performed using either t-test or analysis of variance (ANOVA) with Tukey's test post hoc test when appropriate. All differences were considered significant at p<0.05. AD50 values with 95% CL for behavioral data were calculated by unweighted least-squares linear regression as described by Tallarida and Murray (Tallarida and Murray Manual of Pharmacological Calculations with Computer Programs. 1987, Springer-Verlag, New York).

mice [2] = assay: Body temperature, nicotine-induced hypothermia; type: in vivo; details: Saline/Nicotine (1.5 mg/kg), s.c.
Procedure: Animals. Male ICR mice (20-25 g) obtained from Harlan Laboratories (Indianapolis, Ind.) were used throughout the study. Animals were housed in groups of six and had free access to food and water. Adult, male Long-Evans rats (350-460 g), obtained from Harlan (Dublin, Va.), were individually housed in a temperature-controlled (20-22° C.) environment with a 12-hour light-dark cycle (lights on at 7 a.m.). Rats were maintained within the indicated weight range by restricted post-session feeding and had ad libitum water in their home cages. Rats were drug-naive at the beginning of the study. Animals were housed in an AALAC approved facility and the study was approved by the Institutional Animal Care and Use Committee of Virginia Commonwealth University. Body temperature. Rectal temperature was determined by a thermistor probe (inserted 24 mm) and digital thermometer (Yellow Springs Instrument Co., Yellow Springs, Ohio). […] The difference in rectal temperature before and after treatment was calculated for each mouse. The ambient temperature of the laboratory varied from 21-24° C. from day to day. […] Psychopharmacology (Berl), 1995, 117:67-73). Eight to twelve mice were tested in each treatment group and each animal was tested only once. Statistical analysis. Statistical analysis of all analgesic and in vivo studies was performed using either t-test or analysis of variance (ANOVA) with Tukey's test post hoc test when appropriate.

Rat α4β2 = target: T1, Rat α4β2 (Rattus norvegicus, UniProt P09483+P12390); details: mecamylamine, comparison value in discussion; read-out: IC50 (peak), expressed α4β2 subtypes; cited from earlier work
T1 construct: expressed in transfected cells; host or cells: Xenopus laevis oocytes injected with subunit cRNAs; clones from Dr. Jim Boulter (UCLA)
T1 sequence (P09483 31-630): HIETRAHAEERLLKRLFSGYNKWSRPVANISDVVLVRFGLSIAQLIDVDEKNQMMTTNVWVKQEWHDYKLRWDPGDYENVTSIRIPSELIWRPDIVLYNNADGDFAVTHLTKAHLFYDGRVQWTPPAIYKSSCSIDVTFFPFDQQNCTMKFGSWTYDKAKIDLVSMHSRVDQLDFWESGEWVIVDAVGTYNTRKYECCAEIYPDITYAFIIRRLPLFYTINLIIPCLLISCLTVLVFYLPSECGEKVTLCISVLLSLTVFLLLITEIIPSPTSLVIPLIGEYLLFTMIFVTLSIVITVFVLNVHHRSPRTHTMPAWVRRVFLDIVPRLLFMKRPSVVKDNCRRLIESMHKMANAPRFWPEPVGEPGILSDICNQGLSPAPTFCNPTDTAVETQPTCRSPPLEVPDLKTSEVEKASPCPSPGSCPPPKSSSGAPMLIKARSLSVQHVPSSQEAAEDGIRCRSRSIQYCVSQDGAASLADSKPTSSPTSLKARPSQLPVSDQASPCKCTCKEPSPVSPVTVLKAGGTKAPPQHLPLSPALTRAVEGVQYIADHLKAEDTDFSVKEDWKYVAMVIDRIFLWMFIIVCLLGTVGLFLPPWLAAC
T1 sequence (P12390 25-500): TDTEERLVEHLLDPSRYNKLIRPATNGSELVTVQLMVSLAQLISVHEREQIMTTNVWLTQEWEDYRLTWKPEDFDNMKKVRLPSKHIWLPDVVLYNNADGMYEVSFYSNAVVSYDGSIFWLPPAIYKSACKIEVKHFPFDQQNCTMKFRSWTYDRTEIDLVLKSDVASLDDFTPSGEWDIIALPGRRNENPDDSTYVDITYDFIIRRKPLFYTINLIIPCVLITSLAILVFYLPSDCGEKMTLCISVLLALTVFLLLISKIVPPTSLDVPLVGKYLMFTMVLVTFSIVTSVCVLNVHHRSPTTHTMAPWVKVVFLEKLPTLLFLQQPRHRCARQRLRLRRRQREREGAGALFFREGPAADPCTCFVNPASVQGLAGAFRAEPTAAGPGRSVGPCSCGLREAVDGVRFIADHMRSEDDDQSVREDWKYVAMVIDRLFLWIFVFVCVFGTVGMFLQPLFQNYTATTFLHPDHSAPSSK

SMILES	Locomotor Activity # Interrupts (Mean ± SEM) (mice [1])	Body temperature Δ° C. (Mean ± SEM) (mice [2])	IC50 (Rat α4β2)
CN1CCCC1c1cccnc1 (single isomer, unassigned; (-)) [Nicotine, (−)-Nicotine]	358 ± 92 # Interrupts	−5.0 ± 0.3 °C	–
CNC1(C)C2CCC(C2)C1(C)C (stereo not drawn) [Mecamylamine]	–	–	2500 nM
